Source: US20060040871A1, “Bacterial transforming agent” (priority 2003, published 2006)
Like-named read-outs stand apart in the source and are kept apart here.

What was measured:
[1] = tested on: VRE; test: Antimicrobial plus BTA against VRE (Table 7); type: cell-based, enterococci
[2] = tested on: MRSA; test: Antimicrobial plus BTA against recent clinical MRSA isolates (Table 7); type: cell-based, Staphylococcus aureus
From the text: The four clinical isolates were isolated from patients during the first three months of 2003. […] An intermediate MRSA has been included, as methicillin-resistance has been achieved by means other than production of PBP2a.

[3] = tested on: MRSA; test: Screening on Isosensitest agar with incorporated BTA and 10 μg methicillin discs; type: cell-based, Staphylococcus aureus
Procedure: To find substances related to GBE that might have increased potency, various substances, including those with additional glycine moieties and benzylates, have been screened. Screening was carried out using Isosensitest agar (Oxoid, UK) into which various levels of potential BTAs were incorporated at levels between 0.01 and 1.0%. The agar with incorporated BTA was then used in the manner of a standard antibiotic sensitivity test using 10 μg methicillin discs. The test organism was inoculated onto the agar surface at a concentration suitable to achieve confluent growth after 18 hours incubation at 30° C. After incubation, zone diameters were compared with that achieved by the control plate (Isosensitest alone) for each test organism.

[4] = tested on: E. faecium; conditions: cited from earlier work
[5] = cited from earlier work
[6] = tested on: MRSA with intermediate resistance to glycopeptides; test: MIC of vancomycin or teicoplanin for MRSA with intermediate resistance to glycopeptides grown with GBE or NAGly (Table 4); type: cell-based, Staphylococcus aureus; conditions: for MIC: Staphylococcus aureus
[7] = tested on: glycopeptide-resistant enterococci; conditions: cited from earlier work
[8] = tested on: vancomycin-resistant enterococci (VRE); test: Activity of BTAs against vancomycin-resistant enterococci; type: cell-based
[9] = tested on: vancomycin- and gentamicin-resistant Enterococcus faecium; test: microbe, parasite or virus in culture; type: cell-based; conditions: Enterococcus faecium, 0.0 (Control)
From the text: The agents of the present invention are not limited to the reversal of resistance in Staphylococcus. The test strains in Table 5 are patient-isolates of vancomycin- and gentamicin-resistant Enterococcus faecium. At the time of isolation, they were commonly resistant to all clinically useable antimicrobial agents.

[10] = tested on: vancomycin- and gentamicin-resistant Enterococcus faecium; test: microbe, parasite or virus in culture; type: cell-based; conditions: ATCC29212, read-out: MIC of vancomycin, ATCC 29212 (vancomycin-sensitive reference strain), 0.0 (Control)
[11] = vanA, E. faecium and E. faecalis

Compound: CCOC(=O)CNC(=O)CN [GGEE, Glycylglycine ethyl ester]
- Vancomycin (antimicrobial plus BTA; quantity not named, MIC implied) ([1]; +BTA 1.0%): 64 µg/mL
- Oxacillin (antimicrobial plus BTA; quantity not named, MIC implied) ([2]; EMRSA-16, +BTA 0.01%): 1.5 µg/mL
- Cephalexin (antimicrobial plus BTA; quantity not named, MIC implied) ([2]; EMRSA-16, +BTA 0.1%): 1.5 µg/mL
- Oxacillin (antimicrobial plus BTA; quantity not named, MIC implied) ([2]; EMRSA-16, +BTA 0.1%): 1 µg/mL
- Cephalexin (antimicrobial plus BTA; quantity not named, MIC implied) ([2]; EMRSA-16, +BTA 1.0%): 0.75 µg/mL
- Oxacillin (antimicrobial plus BTA; quantity not named, MIC implied) ([2]; EMRSA-16, +BTA 1.0%): 0.75 µg/mL
- Vancomycin (antimicrobial plus BTA; quantity not named, MIC implied) ([2]; EMRSA-16, +BTA 1.0%): 0.25 µg/mL
- Oxacillin (antimicrobial plus BTA; quantity not named, MIC implied) ([2]; EMRSA-17, +BTA 0.01%): 3 µg/mL
- Cephalexin (antimicrobial plus BTA; quantity not named, MIC implied) ([2]; EMRSA-17, +BTA 0.1%): 2 µg/mL
- Oxacillin (antimicrobial plus BTA; quantity not named, MIC implied) ([2]; EMRSA-17, +BTA 0.1%): 2 µg/mL
- Cephalexin (antimicrobial plus BTA; quantity not named, MIC implied) ([2]; EMRSA-17, +BTA 1.0%): 1 µg/mL
- Oxacillin (antimicrobial plus BTA; quantity not named, MIC implied) ([2]; EMRSA-17, +BTA 1.0%): 1 µg/mL
- Vancomycin (antimicrobial plus BTA; quantity not named, MIC implied) ([2]; EMRSA-17, +BTA 1.0%): 0.25 µg/mL
- Oxacillin (antimicrobial plus BTA; quantity not named, MIC implied) ([2]; I-MRSA, +BTA 0.01%): 1 µg/mL
- Cephalexin (antimicrobial plus BTA; quantity not named, MIC implied) ([2]; I-MRSA, +BTA 0.1%): 0.75 µg/mL
- Oxacillin (antimicrobial plus BTA; quantity not named, MIC implied) ([2]; I-MRSA, +BTA 0.1%): 0.75 µg/mL
- Cephalexin (antimicrobial plus BTA; quantity not named, MIC implied) ([2]; I-MRSA, +BTA 1.0%): 0.38 µg/mL
- Oxacillin (antimicrobial plus BTA; quantity not named, MIC implied) ([2]; I-MRSA, +BTA 1.0%): 0.32 µg/mL
- Vancomycin (antimicrobial plus BTA; quantity not named, MIC implied) ([2]; I-MRSA, +BTA 1.0%): < 0.25 µg/mL
- activity against VRE and MRSA relative to glycylglycine benzyl ester ([3]; VRE and MRSA): greater activity

Compound: quinupristin/dalfopristin
- E. faecium isolates against which active (MIC≦2 mg/L) [4]: 86%

Compound: teicoplanin
- half life [5]: 12 h
- MIC of teicoplanin ([6]; L265, EMRSA-16 (TISA), Control): 32 µg/mL
- MIC of teicoplanin ([6]; L266, EMRSA-16 (TISA), Control): 8 µg/mL
- MIC of teicoplanin ([6]; NCTC 12493, Control): 0.25 µg/mL
- level of teicoplanin to which resistance is conferred [7, 11]: ≥ 32 mg/L
- level of teicoplanin to which resistance is conferred ([7]; vanB): ≤ 1.0
- level of teicoplanin to which resistance is conferred ([7]; vanC1, vanC2, vanC3): ≤ 1.0
- level of teicoplanin to which resistance is conferred ([7]; vanE, E. faecalis): 0.5 mg/L

Compound: Nc1ccc(C(=O)NCC(=O)O)cc1 [Amino-HA, P-Amino Hippuric acid]
- Vancomycin (antimicrobial plus BTA; quantity not named, MIC implied) ([1]; +BTA 0.1%): 64 µg/mL
- Cephalexin (antimicrobial plus BTA; quantity not named, MIC implied) ([2]; EMRSA-16, +BTA 0.01%): 3 µg/mL
- Oxacillin (antimicrobial plus BTA; quantity not named, MIC implied) ([2]; EMRSA-16, +BTA 0.01%): 3 µg/mL
- Cephalexin (antimicrobial plus BTA; quantity not named, MIC implied) ([2]; EMRSA-16, +BTA 0.1%): 1 µg/mL
- Oxacillin (antimicrobial plus BTA; quantity not named, MIC implied) ([2]; EMRSA-16, +BTA 0.1%): 0.75 µg/mL
- Vancomycin (antimicrobial plus BTA; quantity not named, MIC implied) ([2]; EMRSA-16, +BTA 0.1%): 0.25 µg/mL
- Cephalexin (antimicrobial plus BTA; quantity not named, MIC implied) ([2]; EMRSA-17, +BTA 0.01%): 6 µg/mL
- Oxacillin (antimicrobial plus BTA; quantity not named, MIC implied) ([2]; EMRSA-17, +BTA 0.01%): 6 µg/mL
- Cephalexin (antimicrobial plus BTA; quantity not named, MIC implied) ([2]; EMRSA-17, +BTA 0.1%): 4 µg/mL
- Oxacillin (antimicrobial plus BTA; quantity not named, MIC implied) ([2]; EMRSA-17, +BTA 0.1%): 1 µg/mL
- Vancomycin (antimicrobial plus BTA; quantity not named, MIC implied) ([2]; EMRSA-17, +BTA 0.1%): 0.25 µg/mL
- Cephalexin (antimicrobial plus BTA; quantity not named, MIC implied) ([2]; I-MRSA, +BTA 0.01%): 1.5 µg/mL
- Oxacillin (antimicrobial plus BTA; quantity not named, MIC implied) ([2]; I-MRSA, +BTA 0.01%): 1.5 µg/mL
- Cephalexin (antimicrobial plus BTA; quantity not named, MIC implied) ([2]; I-MRSA, +BTA 0.1%): 0.064 µg/mL
- Oxacillin (antimicrobial plus BTA; quantity not named, MIC implied) ([2]; I-MRSA, +BTA 0.1%): 0.064 µg/mL
- Vancomycin (antimicrobial plus BTA; quantity not named, MIC implied) ([2]; I-MRSA, +BTA 0.1%): < 0.25 µg/mL
- activity relative to Hippuric acid and GBE [3]: improved activity

Compound: N-carbamoylglycine (Hydantoic acid)
- activity against vancomycin-resistant enterococci (VRE) [8]: low-level active

Compound: CN[C@H](CC(C)C)C(=O)N[C@H]1C(=O)N[C@@H](CC(N)=O)C(=O)N[C@H]2C(=O)N[C@H]3C(=O)N[C@H](C(=O)N[C@H](C(=O)O)c4cc(O)cc(O)c4-c4cc3ccc4O)[C@H](O)c3ccc(c(Cl)c3)Oc3cc2cc(c3O[C@@H]2O[C@H](CO)[C@@H](O)[C@H](O)[C@H]2O[C@H]2C[C@](C)(N)[C@H](O)[C@H](C)O2)Oc2ccc(cc2Cl)[C@H]1O [vancomycin]
- Vancomycin (antimicrobial plus BTA; quantity not named, MIC implied) ([1]; vancomycin alone): > 256 µg/mL
- MIC ([9]; read-out: MIC of vancomycin, BBC): 32 µg/mL
- MIC ([9]; read-out: MIC of vancomycin, E254): 128 µg/mL
- MIC ([9]; read-out: MIC of vancomycin, E267): 128 µg/mL
- MIC ([9]; read-out: MIC of vancomycin, E271): 64 µg/mL
- MIC ([9]; read-out: MIC of vancomycin, E285): 64 µg/mL
- MIC ([9]; read-out: MIC of vancomycin, E297): 128 µg/mL
- MIC ([9]; read-out: MIC of vancomycin, GBC): 64 µg/mL
- MIC ([9]; read-out: MIC of vancomycin, S226): 128 µg/mL
- MIC ([9]; read-out: MIC of vancomycin, S227): 128 µg/mL
- MIC ([9]; read-out: MIC of vancomycin, S283): 64 µg/mL
- MIC ([9]; read-out: MIC of vancomycin, S302): 64 µg/mL
- MIC ([9]; read-out: MIC of vancomycin, S315): 64 µg/mL
- MIC ([9]; read-out: MIC of vancomycin, S317): 128 µg/mL
- MIC ([9]; read-out: MIC of vancomycin, S319): 64 µg/mL
- MIC ([9]; read-out: MIC of vancomycin, S333): 64 µg/mL
- MIC ([9]; read-out: MIC of vancomycin, S337): 32 µg/mL
- MIC ([9]; read-out: MIC of vancomycin, S393): 64 µg/mL
- MIC ([9]; read-out: MIC of vancomycin, S497): 64 µg/mL
- MIC ([9]; read-out: MIC of vancomycin, S556): 64 µg/mL
- MIC ([9]; read-out: MIC of vancomycin, WBC): 64 µg/mL
- MIC [10]: 2 µg/mL
- MIC ([6]; MRSA / NCTC 12493, read-out: MIC of vancomycin, NCTC 12493, Control): 0.5 µg/mL
- MIC ([6]; MRSA / NCTC 12493, read-out: MIC of vancomycin, reference strain NCTC 12493, as stated in text on Table 1): 2 µg/mL
- MIC ([6]; MRSA / VISA, read-out: MIC of vancomycin, L266 (first line), EMRSA-17 (VISA), Control): 8 µg/mL
- MIC ([6]; MRSA / VISA, read-out: MIC of vancomycin, L266 (second line), EMRSA-17 (VISA), Control): 8 µg/mL
- level of vancomycin to which resistance is conferred [7, 11]: ≥ 256 mg/L
- level of vancomycin to which resistance is conferred ([7]; vanE, E. faecalis): 16 mg/L
- Vancomycin (antimicrobial plus BTA; quantity not named, MIC implied) ([2]; EMRSA-16, vancomycin alone): 1 µg/mL
- Vancomycin (antimicrobial plus BTA; quantity not named, MIC implied) ([2]; EMRSA-17, vancomycin alone): 2 µg/mL
- Vancomycin (antimicrobial plus BTA; quantity not named, MIC implied) ([2]; I-MRSA, vancomycin alone): 0.5 µg/mL
